Data reported in patent US6228886A, “Nutritional formulations containing water-miscible lipid derivatives as antibacterial agents” (Abbott Laboratories, priority 2000, dated 2001).

Columns and labels:
RSV [1] = conditions: carrageenan removed from the formulation; cited from earlier work
RSV [2] = assay: In vivo prevention of RSV infection in cotton rats; conditions: 1000 mg/L Carrageenan in M. Similac®
Source text: Cotton rats have been used as an RSV research animal model for about 20 years. The cotton rat has a similar pathological change in the lung to that observed in human infants when infected by RSV (Prince et al., 1978). […] It has also been observed that the intravenously-administered RSV-IgG has to reach a titer of ≥1:100 concentration to show the preventive effect (Prince et al., 1985). The same serum concentration of RSV-IgG in human infants is protective (Groothuis et al., 1993, 1995). Due to these similarities, the FDA has recommended the cotton rat as an appropriate model for RSV studies.
To have a repeatable RSV nasal and lung infection, a high RSV dose (10^4 pfu/animal) was intra-nasally inoculated to all animals. The inoculum (100 μl) consisted of 50 μl of RSV stock solution and 50 μl of test product. […] In addition, some studies were performed in an infant formula in which the intact protein was replaced with a casein hydrolysate (Alimentum®). All animals consumed the regular rodent chow diet throughout the experimental period. Four days after RSV challenge, all animals were sacrificed. Their lung and nasal tissue were isolated for determination of RSV titers. As a positive control, a 5% RSV-IgG was always used. […]

Carrageenan
anti-RSV activity, previously found (RSV [1]): anti-RSV activity
RSV titer in Lung (RSV [2]): 3.06 ± 0.16 Log10 PFU/g tissue
RSV titer in Nose (RSV [2]): 3.78 ± 0.47 Log10 PFU/g tissue
